Laboratory results reported in patent US9206191B2, “Indazoles for the treatment and prophylaxis of respiratory syncytial virus infection” (Hoffmann-La Roche Inc., priority 2012, dated 2015).
pEC50: −log10 of the molar value.

How the values were obtained:
[1] = single dose PK in male ICR mouse (IV and PO); assay type: in vivo; conditions: male ICR mice; for AUC(0-t) / half-life: mouse, plasma
Protocol: The single dose PK in male ICR mouse was performed to assess their pharmacokinetic properties. Two groups of animals were dosed via either bolus intravenous (IV) or oral gavage (PO) of the respective compound. The animals for oral administration were fasted overnight prior to dosing and food was resumed 4 hours postdose. Blood samples (approximately 400 μL) were collected via cardiac puncture after euthanasia by carbon dioxide inhalation at 2 min, 5 min, 15 min, 30 min, 1 h, 2 h, 4 h, 6 h, 8 h, and 24 h postdose for IV group, and at 5 min, 15 min, 30 min, 1 h, 2 h, 4 h, 6 h, 8 h, and 24 h postdose for PO group. Blood samples were placed into tubes containing sodium heparin and centrifuged at 8000 rpm for 6 minutes at 4° C. to separate plasma from the samples. Following centrifugation, the resulting plasma was transferred to clean tubes for bioanalysis on LC/MS/MS. The pharmacokinetic parameters were calculated using non-compartmental module of WinNonlin® Professional 5.2.

RSV Long strain = assay: Viral Cytopathic Effect (CPE) Assay; assay type: cell-based; conditions: human respiratory syncytial virus, 144 h, cell viability after 6 days, Cell Counting kit-8
RSV = conditions: Phase III clinical trials; cited from earlier work
RSV infection = conditions: intramuscularly at 15 mg/kg once a month for the duration of RSV season; selected infants; cited from earlier work

## CS(=O)(=O)c1nn(Cc2nc3cc(Cl)ccc3n2CCC(F)(F)F)c2cnccc12 [Example 2-21, 1-{[5-Chloro-1-(3,3,3-trifluoropropyl)-1H-benzimidazol-2-yl]methyl}-3-(methylsulfonyl)-1H-pyrazolo[3,4-c]pyridine]
[1]; IV (1.65 mg/Kg)
  CLz: 10.6 mL/min/kg
  AUC(0-t): 2590 ng·h/mL
  half-life: 2.82 h
[1]; PO (8.27 mg/kg)
  F: 37.1%
  AUC(0-t): 4800 ng·h/mL
  half-life: 3.16 h
RSV Long strain
  pEC50: 7.72

## CS(=O)(=O)c1nn(Cc2nc3cc(Cl)ccc3n2CCCC(F)(F)F)c2cnccc12 [Example 4-3, 1-{[5-Chloro-1-(4,4,4-trifluorobutyl)-1H-benzimidazol-2-yl]methyl}-3-(methylsulfonyl)-1H-pyrazolo[3,4-c]pyridine]
[1]; IV (2 mg/kg)
  CLz: 43.4 mL/min/kg
  AUC(0-t): 760 ng·h/mL
  half-life: 1.26 h
[1]; PO (6 mg/kg)
  F: 46.0%
  AUC(0-t): 1050 ng·h/mL
  half-life: 0.831 h
RSV Long strain
  pEC50: 8.30

## motavizumab: A newer version monoclonal antibody, designed as potential replacement of palivizumab
RSV
  benefit over palivizumab: failed to show additional benefit over palivizumab

## CS(=O)(=O)c1nn(Cc2nc3cc(Cl)ccc3n2CC2COC2)c2cnccc12 [Example 2-22, 1-{[5-Chloro-1-(oxetan-3-ylmethyl)-1H-benzimidazol-2-yl]methyl}-3-(methylsulfonyl)-1H-pyrazolo[3,4-c]pyridine]
[1]; IV (1 mg/Kg)
  CLz: 16.9 mL/min/kg
  AUC(0-t): 976 ng·h/mL
  half-life: 1.55 h
[1]; PO (12.2 mg/kg)
  F: 23.8%
  AUC(0-t): 2430 ng·h/mL
  half-life: 2.45 h
RSV Long strain
  pEC50: 8.22

## palivizumab: a humanized monoclonal antibody against RSV fusion (F) protein approved for prophylaxis in high-risk infants
RSV infection
  reduction of hospitalization rate caused by RSV infection: 45-55%

## CS(=O)(=O)CCCn1c(Cn2cc(S(C)(=O)=O)c3ccccc32)nc2cc(Cl)ccc21 [Example 1-2, 5-Chloro-2-{[3-(methylsulfonyl)-1H-indol-1-yl]methyl}-1-[3-(methylsulfonyl)propyl]-1H-benzimidazole]
RSV Long strain
  pEC50: 7.20

## CS(=O)(=O)c1nn(Cc2nc3cc(Cl)ccc3n2[C@@H]2CCN(CC(F)(F)F)C2)c2cnccc12 [Example 2-20, 1-({5-Chloro-1-[(3R)-1-(2,2,2-trifluoroethyl)pyrrolidin-3-yl]-1H-benzimidazol-2-yl}methyl)-3-(methylsulfonyl)-1H-pyrazolo[3,4-c]pyridine]
RSV Long strain
  pEC50: 6.73

## CS(=O)(=O)c1nn(Cc2nc3cc(Cl)ccc3n2[C@H]2C[C@H](C(=O)O)C2)c2cnccc12 [Example 2-41, trans-3-(5-chloro-2-{[3-(methylsulfonyl)-1H-pyrazolo[3,4-c]pyridin-1-yl]methyl}-1H-benzimidazol-1-yl)cyclobutanecarboxylic acid]
RSV Long strain
  pEC50: 8.15

## COc1ccc(-n2c(Cn3nc(S(C)(=O)=O)c4ccccc43)nc3cc(Cl)ccc32)cn1 [Example 3-4, 1-{[5-Chloro-1-(6-methoxypyridin-3-yl)-1H-benzimidazol-2-yl]methyl}-3-(methylsulfonyl)-1H-indazole]
RSV Long strain
  pEC50: 7.48
